Experimental data reported in patent US20020107193A1, “Therapeutic uses for IP3 receptor-mediated calcium channel modulators” (priority 2000, published 2002).

Tests used:
[1] = test system: IP3 receptors on microsomes; assay: Microsome extract (MSE) effect on cytoplasmic NF-κB binding activity; assay type: biochemical, rat
Protocol: Cerebral cortices from adult female Sprague-Dawley rats were homogenized (20 strokes at 300 rpm) with a Teflon homogenizer in ice-cold buffer containing 1 mM EDTA, 0.32 M sucrose, 0.1 mM dithiothreitol and 1 mM HEPES as described previously (Chen et al., 1998, Diabetes 47:874-81) and cytoplasmic and microsome fractions were isolated by differential centrifugation. Briefly, tissue fragments and cellular debris were removed by centrifugation at 500 g for 10 min and supernatants were centrifuged at 20,000 g for 20 min to pellet intact mitochondria and nuclei. The supernatant was then centrifuged at 100,000 g for 1 h in order to obtain the cytoplasmic fraction and the microsomal pellet enriched in endoplasmic reticulum and golgi membranes. Microsome extracts (MSE) were prepared by suspending microsomes in 1:100 v/v ice-cold buffer and centrifuging at 100,000× g for 1 hr. Microsomes were then re-suspended in 1:2 v/v volume buffer and treated as described below. At the end of the treatment, the suspension was centrifuged at 100,000 g for 1 h, and supernatants were used as MSE. For experiments involving incubation of MSE with cytoplasmic extract, 3 μl of MSE were added to 10 μl cytoplasmic extract and mixtures were incubated at room temperature for 1 h.
[…] After 1 h at room temperature, samples were examined for NF-κB binding activity.
Indeed, the role calcium plays in this paradigm seems to be as an intraluminal signal.

[2] = test system: macrophage-tropic CCR5-utilizing HIV CSF; assay: p24 antigen in media of HIV-infected peripheral blood lymphocytes; assay type: cell-based; settings: for p24 levels, of controls: day 2
Protocol: Peripheral blood lymphocytes, previously stimulated for 72 hours with PHA, were divided into 3 groups, designated T-HIV (RPMI-10 media containing 1 μM XeC and 0.1% DMSO), N-HIV (RPMI-10 media containing 0.1% DMSO) and HIV (RPMI-10 media). […] The cells were then infected with a macrophage-tropic CCR5-utilizing HIV CSF for 3 hours at 37° and then washed to remove excess virus. All groups were cultured in RPMI-10% FCS+10U/ml IL-2. Referring to FIGS. 7-11, cells were incubated at 37° C. in 5% CO2. At stated time points shown in the aforementioned figures, spent media was removed and replace with fresh media. The media was tested for the presence of p24 antigen as a surrogate for HIV infection and replication. […] The significance of using the CCR5 utilizing macrophage-tropic virus JR-CSF is that this is the type of virus generally transmitted sexually.

[3] = test system: immune cell line; assay: Proinflammatory cytokine production in an immune cell line; assay type: cell-based
[4] = test system: cardiac cells; settings: Hu et al., 1999, cited from earlier work

C1CCC[C@H]2CCCN3CC[C@@H](CCCCCC[C@@H]4CCCN5CC[C@@H](CC1)O[C@@H]45)O[C@@H]23 [XeC, Xestospongin C]
NF-κB stimulating activity of microsomes pretreated then given calcium ([1]; XeC pretreatment followed by calcium): produced no NF-κB stimulating activity | effect of microsome pretreatment on IP3-induced NF-κB stimulating properties of MSE ([1]; XeC pretreatment of microsomes): completely abolished this effect | p24 antigen as surrogate for HIV infection and replication, relative to DMSO ([2]; 1 μM XeC, 0.1% DMSO, overall statement): inhibition | p24 levels, of controls ([2]; X1: XeC once 2 hours pre-infection, FIG. 7): ~50% | p24 levels ([2]; X1: XeC once 2 hours pre-infection, day 3, FIG. 7): increased to approximately control levels | p24 levels ([2]; X1: XeC once pre-infection, day 3, third experiment, FIG. 10): reduced relative to D1 and D2 | p24 levels ([2]; X1: XeC once pre-infection, day 4, third experiment, FIG. 10): increased to near control levels | p24 levels ([2]; X1: XeC once pre-infection, subsequent experiment, FIG. 8): no effect was seen | p24 levels, of controls ([2]; X2: XeC 2 hours pre-infection and 6 hours post-infection, FIG. 7): approximately 80% | p24 levels ([2]; X2: XeC pre- and post-infection, day 3, FIG. 7): increased to approximately control levels | p24 levels ([2]; X2: XeC pre- and post-infection, day 3, third experiment, FIG. 10): reduced relative to D1 and D2 | p24 levels ([2]; X2: XeC pre- and post-infection, day 4, FIG. 9): increase to near wild-type levels | p24 levels, of the DMSO controls ([2]; X2: XeC pre- and post-infection, day 4, third experiment, FIG. 10): approximately 50% | p24 levels ([2]; X2: XeC pre- and post-infection, days 2 and 3, subsequent experiment, FIG. 8): greatly reduced | proinflammatory cytokine production [3]: inhibited | frequency of calcium oscillations [4]: decreased the frequency | NF-κB activity ([4]; histamine stimulation): parallel decrease
